Where two headings read alike, the source gives them in different places.
Legend:
[1] = Acute toxicity (LD50, Behrens-Karber method); assay type: in vivo, ICR mice; details: mouse, in vivo, ip, mortality during 30 days
Method: Test compounds, dissolved or suspended in 0.5% aqueous CMC, were each intraperitoneally administered to ICR mice in a dose of 0.1 ml per 10 g body weight. LD50 (mg/kg) value of each test compound was calculated from the mortality of mice during 30 days by the Behrens-Karber method.

Ehrlich acites carcinoma = test: Growth-inhibiting effect against Ehrlich acites carcinoma; assay type: in vivo, male mice; details: Mus musculus, Ehrlich, 120 h, 5 days; for response vs control in vivo at 25 mg/kg: 25 mg/kg/day ip; for response vs control in vivo at 100 mg/kg: 100 mg/kg/day ip; for response vs control in vivo at 50 mg/kg: 50 mg/kg/day ip; for response vs control in vivo at 200 mg/kg: 200 mg/kg/day ip
Procedure, shortened: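 Male mice (groups of 6) implanted intraperitoneally with 1×10^7 Ehrlich ascites cells; compounds in 1% Nikkol HCO-60 given i.p. once daily for 5 days starting 24 hrs post-implantation. Total packed cell volume measured at day 7; T/C% vs untreated group, scored - (100-66), + (65-41), ++ (40-11), +++ (10-0).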

Leukemia L1210 = test: Activity against Leukemia L1210, intraperitoneal, increase in life span of mice; assay type: in vivo, female mice (BDF1 family); details: for ED (maximum ILS) / ED30: Mus musculus, L1210, ip, ip once a day for 5 successive days; for ED (maximum ILS): daily dosage giving maximum increase of life span, read-out: O.D. (optimum dosage); for ED30: daily dosage increasing average survival days by 30%, read-out: ILS30; for Survivors after 60 days / Max. ILS % / Therapeutic ratio TR: ip; for Survivors after 60 days: 6-membered group; for Max. ILS %: 60-day observation, versus control; for Therapeutic ratio TR: O.D./ILS30
Procedure, shortened: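 Female BDF1 mice (20 to 23 g; 6 per group) were implanted intraperitoneally with 1×10^5 L1210 cells, then dosed ip or orally once daily for 5 days starting 24 h later. Survival was followed over 60 days, and ILS% was derived from mean survival days versus untreated controls.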

[2] = Diuretic activity, acute sodium loaded mouse screening test; assay type: in vivo, male mice; details: 50 mg/kg oral in 1% saline; for Cl^- / K^+ / Na^+: urine
Method: The diuretic activity of the compounds of this invention was assayed by the diuresis screening test referred to as "acute sodium loaded mouse". This test was carried out by the following method.
The acute sodium loaded mouse screening test was carried out by using a 10-membered group of male mice (each weighing 18 to 24 g). Test compounds were incorporated in 1% saline (NaCl) solution and orally administered in a volume of 10 ml/kg. The mice were placed in metabolic cages. Each treated group consisted of 10-members. Five members were placed in one cage. Tests were conducted by oral administrations of (A) 1% saline (NaCl) solution to the control group and (B) 1% saline (NaCl) solution containing a test compound according to this invention.
The determination was carried out for sodium, potassium, and chlorine in each pooled urine sample. The determination of sodium and potassium was carried out by flame photometer. Chlorine was determined by chloride analysis apparatus. The analytical values of sodium, potassium, and chlorine were shown with an average mg equivalent (m Eq)/Kg/5 hours, and the diuretic activity was shown with an average urine volume (ml)/Kg/5 hours.

| Compound | LD50 at 720 h [1] [mg/kg] | response vs control in vivo at 25 mg/kg (Ehrlich acites carcinoma; read-out: Activity) [%] | response vs control in vivo at 25 mg/kg (Ehrlich acites carcinoma; read-out: T/C %) [%] | response vs control in vivo at 100 mg/kg (Ehrlich acites carcinoma; read-out: Activity) [%] | response vs control in vivo at 100 mg/kg (Ehrlich acites carcinoma; read-out: T/C %) [%] | ED (maximum ILS) (Leukemia L1210) [mg/kg] | ED30 (Leukemia L1210) [mg/kg] | Survivors after 60 days (Leukemia L1210) | Max. ILS % (Leukemia L1210) [%] | Therapeutic ratio TR (Leukemia L1210) | Urine volume [2] [ml/kg/5 hrs.] | Cl^- [2] [mEq/kg/5 hrs.] | K^+ [2] [mEq/kg/5 hrs.] | Na^+ [2] [mEq/kg/5 hrs.] | response vs control in vivo at 50 mg/kg (Ehrlich acites carcinoma; read-out: Activity) [%] | response vs control in vivo at 50 mg/kg (Ehrlich acites carcinoma; read-out: T/C %) [%] | response vs control in vivo at 200 mg/kg (Ehrlich acites carcinoma; read-out: Activity) [%] | response vs control in vivo at 200 mg/kg (Ehrlich acites carcinoma; read-out: T/C %) [%] |
| --- | --- | --- | --- | --- | --- | --- | --- | --- | --- | --- | --- | --- | --- | --- | --- | --- | --- | --- |
| COCC(C)N(C[C@H]1O[C@H](OCC(C)C)[C@H](O)[C@@H](O)[C@H]1O)C(=O)N(CCCl)N=O (stereo partly drawn) [Compound 110, 3-(1-methyl-2-methoxyethyl)-3-(isobutyl α-D-galactopyranose-6-yl)-1-(2-chloroethyl)-1-nitrosourea] | 680 | 0 to 10 | 0 | 0 to 10 | 0 | 200 | 3.69 | 4/6 | > 435 | 54.2 | 8.8 | 0.6 | 0.8 | 0.5 |  |  |  |  |
| CC(C)CO[C@@H]1O[C@H](CN(C(=O)N(CCCl)N=O)C(C)(C)C)[C@@H](O)[C@H](O)[C@H]1O [Compound 175, 3-tert-butyl-3-(isobutyl β-D-glucopyranose-6-yl)-1-(2-chloroethyl)-1-nitrosourea] | 550 |  |  |  |  | 170 | 3.33 | 6/6 | > 700 | 51.0 | 9.4 | 0.8 | 0.9 | 0.6 |  |  |  |  |
| CCCCO[C@@H]1O[C@H](CN(C)C(=O)N(CCCl)N=O)[C@@H](O)[C@H](O)[C@H]1O [Compound 4, 3-methyl-3-(n-butyl β-D-glucopyranose-6-yl)-1-(2-chloroethyl)-1-nitrosourea] | 220 |  |  |  |  | 80 | 2.7 | 6/6 | > 700 | 29.6 | 8.6 | 0.6 | 0.9 | 0.5 | 11 to 40 | 30.2 | 0 to 10 | 2.3 |
| CCOCCCN(C(=O)N(CCCl)N=O)[C@H]1[C@H](OC(C)CC)OC[C@H](O)[C@@H]1O (stereo partly drawn) [Compound 157, 3-(3-ethoxy-n-propyl)-3-(sec-butyl α-L-arabinopyranose-2-yl)-1-(2-chloroethyl)-1-nitrosourea] | 550 | 0 to 10 | 0 | 0 to 10 | 0 | 170 | 2.94 | 6/6 | > 700 | 57.8 | 10.5 | 1.1 | 1.0 | 0.8 |  |  |  |  |
| CCOCCCN(C[C@H]1O[C@H](OC(C)CC)[C@H](O)[C@@H](O)[C@@H]1O)C(=O)N(CCCl)N=O (stereo partly drawn) [Compound 19, 3-(3-ethoxy-n-propyl)-3-(sec-butyl α-D-glucopyranose-6-yl)-1-(2-chloroethyl)-1-nitrosourea] | 560 | 0 to 10 | 0 | 0 to 10 | 0 | 180 | 3.33 | 6/6 | > 700 | 54.0 | 9.1 | 0.7 | 0.8 | 0.6 |  |  |  |  |
| COCCCN(C(=O)N(CCCl)N=O)C1C(OCC(C)C)OC(CO)C(O)C1O [Compound 74, 3-(3-methoxy-n-propyl)-3-(isobutyl α-D-glucopyranose-2-yl)-1-(2-chloroethyl)-1-nitrosourea] | 560 | 0 to 10 | 0 | 0 to 10 | 0 | 170 | 3.92 | 6/6 | > 700 | 43.2 | 9.4 | 0.7 | 0.8 | 0.6 |  |  |  |  |
| CCCCO[C@H]1O[C@H](CN(CCCOC)C(=O)N(CCCl)N=O)[C@@H](O)[C@H](O)[C@H]1O [Compound 10] | 480 | 0 to 10 | 0 | 0 to 10 | 0 | 150 | 3.1 | 6/6 | > 700 | 48.4 | 8.7 | 0.6 | 0.8 | 0.5 |  |  |  |  |
| CC(C)(C)N(C[C@H]1O[C@H](OCCN2CCOCC2)[C@H](O)[C@@H](O)[C@@H]1O)C(=O)N(CCCl)N=O [Compound 181, 3-tert-butyl-3-(2-morpholinoethyl α-D-glucopyranose-6-yl)-1-(2-chloroethyl)-1-nitrosourea] | 530 | 0 to 10 | 0 | 0 to 10 | 0 | 160 | 2.89 | 6/6 | > 700 | 55.4 | 13.1 | 1.3 | 1.2 | 1.1 |  |  |  |  |
| COCCN(C[C@H]1O[C@H](OCC(C)C)[C@H](O)[C@@H](O)[C@@H]1O)C(=O)N(CCCl)N=O [Compound 15, 3-(2-methoxyethyl)-3-(isobutyl α-D-glucopyranose-6-yl)-1-(2-chloroethyl)-1-nitrosourea] | 570 | 0 to 10 | 0 | 0 to 10 | 0 | 180 | 2.9 | 6/6 | > 700 | 62.1 | 9.2 | 0.7 | 0.9 | 0.6 |  |  |  |  |
| COCCN(C[C@H]1O[C@H](OC(C)COC)[C@H](O)[C@@H](O)[C@@H]1O)C(=O)N(CCCl)N=O (stereo partly drawn) [Compound 35, 3-(2-methoxyethyl)-3-(1-methyl-2-methoxyethyl α-D-glucopyranose-6-yl)-1-(2-chloroethyl)-1-nitrosourea] | 470 | 0 to 10 | 0 | 0 to 10 | 0 | 150 | 2.23 | 6/6 | > 700 | 67.3 | 8.8 | 0.6 | 0.9 | 0.5 |  |  |  |  |
